Results on 19 compounds are retold here after patent US9718792B2, “Isoxazoline hydroxamic acid derivatives as LpxC inhibitors” (priority 2014, dated 2017).

In brackets after ≈: the same amount, converted by molar mass. Like-named read-outs stand apart in the source and are kept apart here.

In test [1] the test system is P. aeruginosa PAO1. The experiment in a line: Susceptibility Testing (MIC, broth microdilution). In kind it is cell-based, Pseudomonas aeruginosa. Particulars: Pseudomonas aeruginosa, PAO1, 20 h, read-out: PAO1 MIC. As for the experimental part: Bacterial isolates were cultivated from −70° C. frozen stocks by two consecutive overnight passages at 35° C. in ambient air on 5% blood agar (Remel, Lenexa, Kans.). Quality control and P. aeruginosa ATCC 27853) is from the American Type Culture Collection (ATCC; Rockville, Md.) and PAO1 was received from Dr. K. Poole.
Minimal Inhibitory Concentrations (MICs) were determined by the broth microdilution method in accordance with Clinical and Laboratories Institute (CLSI) guidelines. In brief, fresh bacterial overnight cultures were resuspended in sterile saline, adjusted to a 0.5 McFarland turbidity standard and then diluted […] in cation adjusted Mueller-Hinton Broth II (MHB; Remel BBL) to yield a final inoculum of approximately 5×10^5 colony-forming units (CFU)/mL. Two-fold serial dilutions of compounds were prepared in 100% dimethyl sulfoxide (DMSO) at 100-fold the highest final assay concentration; the resulting dilution series of compounds were diluted 1:10 with sterile water. Ten μl of the drug dilution series in 10% DMSO was transferred to microtiter wells and 90 μl of bacterial suspension was inoculated into the wells. All inoculated microdilution trays were incubated in ambient air at […] for 20 hours. Following incubation, assay plates were read in a microtiter plate reader at 600 nm and visually inspected to confirm the MIC endpoint well with the OD value. The lowest concentration of the compound that prevented visible growth was recorded as the MIC. Performance of the assay was monitored by testing ciprofloxacin against laboratory quality control strains in accordance with guidelines of the CLSI.
(In general: Dilution methods test growth across graded concentrations, often in twofold steps.)

In test [2] the target is P. aeruginosa LpxC (Pseudomonas aeruginosa (strain ATCC 15692 / DSM 22644 / CIP 104116 / JCM 14847 / LMG 12228 / 1C / PRS 101 / PAO1), UniProt P47205). The experiment in a line: P. aeruginosa LpxC Inhibition Assay. In kind it is biochemical. Particulars: 1 nM P. aeruginosa LpxC, 2 μM substrate, LC-MS/MS; read-out: PA LpxC IC50. The source says: The P. aeruginosa LpxC protein is produced according to the general method of Hyland et al (Journal of Bacteriology 1997 179, 2029-2037: Cloning, expression and purification of UDP-3-O-acyl-GIcNAc deacetylase from Pseudomonas aeruginosa: a metalloamidase of the lipid A biosynthesis pathway). The LC-MS/MS method for quantitation of LpxC product was developed using an Agilent 1200 Capillary HPLC system coupled to an Applied Biosystems MDS Sciex 4000QTRAP mass spectrometer. Both instruments are controlled using the Applied Biosystems MDS Sciex Analyst software. LpxC reaction product (UDP-3-O—(R-3-hydroxyacyl)-glucosamine) was produced by hydrolysis of LpxC substrate catalyzed by P.a. LpxC and purified using reversed phase chromatography on a Phenomenex Luna C18(2) 4.6×50 mm column. An LpxC product calibration curve was generated to evaluate the sensitivity and dynamic range of the LC-MS/MS method. Briefly, compounds are pre-incubated with 1 nM P. aeruginosa LpxC for 30 min. at room temperature. Reactions are initiated by the addition of 2 μM UDP-3-O—(R-3-hydroxydecanoyl)-GIcNAc. Reactions are conducted in a 384-well plate with a total volume of 50 μL in each well containing 50 mM Sodium phosphate pH 7.5, 0.005% Trition X-100 for 20 min at room temperature. After quenching with 1.8% HOAc (5 μL of a 20% HOAc added to each well), reaction mixtures are analyzed using the LC-MS/MS method and peak areas are transformed into product concentration using a LpxC product calibration curve. Total activity (0% inhibition control) is obtained from reactions with no inhibitors and 100% inhibition control is the background using quenched samples before reaction starts. For IC50 determinations, peak areas are converted to percent inhibition in Microsoft Excel. Percent inhibition values are plotted vs. log compound concentration using XLfit. Data is fit to the four-parameter logistic equation using the non-linear regression algorithm in XLfit to return the IC50 and hill slope values.

The mark [3] stands for this setting: P. aeruginosa PAO1, broth microdilution, 20 hours.

For `CC(CC1CC(c2ccc(Br)cc2)=NO1)(C(=O)NO)S(C)(=O)=O` (single isomer, unassigned) [Compound 1-B, 3-(3-(4-bromophenyl)-4,5-dihydroisoxazol-5-yl)-N-hydroxy-2-methyl-2-(methylsulfonyl)propanamide], the minimal inhibitory concentration (MIC) in test [1] (setting [3]) was 1 mg/L (≈ 2.47 µM). Moreover, the half-inhibitory concentration (IC50) in test [2] was less than 0.5 nM.

For the compound `CC(CC1CC(c2ccc(-c3ccccc3)cc2)=NO1)(C(=O)NO)S(C)(=O)=O` (single isomer, unassigned) [Compound 3-B, 3-(3-([1,1′-biphenyl]-4-yl)-4,5-dihydroisoxazol-5-yl)-N-hydroxy-2-methyl-2-(methylsulfonyl)propanamide], the minimum inhibitory concentration (MIC) in test [1] (setting [3]) was found to be 0.25 mg/L (≈ 0.621 µM). In addition, the 50% inhibitory concentration (IC50) in test [2] was found to be 1 nM.

As for `CC#CCOc1ccc(C2=NOC(CC(C)(C(=O)NO)S(C)(=O)=O)C2)cc1` (single isomer, unassigned) [Compound 4-B, 3-(3-(4-(but-2-yn-1-yloxy)phenyl)-4,5-dihydroisoxazol-5-yl)-N-hydroxy-2-methyl-2-(methylsulfonyl)propanamide], the MIC in test [1] came out at 8 mg/L (≈ 20.3 µM). The IC50 in test [2] is 24 nM.

`CC(CC1CC(c2ccc(C3CC3)cc2)=NO1)(C(=O)NO)S(C)(=O)=O` (single isomer, unassigned) [Compound 5-A, 3-(3-(4-cyclopropylphenyl)-4,5-dihydroisoxazol-5-yl)-N-hydroxy-2-methyl-2-(methylsulfonyl)propanamide]: in test [1] (setting [3]), the MIC came to 2 mg/L (≈ 5.46 µM). For the same compound, in test [2], the IC50 is 7 nM.

Turning to `CCC#Cc1ccc(C2=NOC(CC(C)(C(=O)NO)S(C)(=O)=O)C2)cc1` (single isomer, unassigned) [Compound 8-B, 3-(3-(4-(but-1-yn-1-yl)phenyl)-4,5-dihydroisoxazol-5-yl)-N-hydroxy-2-methyl-2-(methylsulfonyl)propanamide], the MIC in test [1] (setting [3]) was 1 mg/L (≈ 2.64 µM). In test [2], the IC50 came to 0.5 nM.

As to `CC(CC1CC(c2ccc(C#CCCO)cc2)=NO1)(C(=O)NO)S(C)(=O)=O` (single isomer, unassigned) [Compound 10-B, N-hydroxy-3-(3-(4-(4-hydroxybut-1-yn-1-yl)phenyl)-4,5-dihydroisoxazol-5-yl)-2-methyl-2-(methylsulfonyl)propanamide], in test [1] (setting [3]), the MIC is 1 mg/L (≈ 2.54 µM). Further, the concentration for half-maximal inhibition (IC50) in test [2] is less than 0.5 nM.

Consider `CC#Cc1ccc(C2=NOC(CC(C)(C(=O)NO)S(C)(=O)=O)C2)cc1F` (single isomer, unassigned) [Compound 12-B, 3-(3-(3-fluoro-4-(prop-1-yn-1-yl)phenyl)-4,5-dihydroisoxazol-5-yl)-N-hydroxy-2-methyl-2-(methylsulfonyl)propanamide], for which the MIC in test [1] (setting [3]) turned out to be 2 mg/L (≈ 5.23 µM). In addition, the IC50 in test [2] amounted to 2 nM.

As for `CC(CC1CC(c2ccc(C#CC3CC3)c(F)c2)=NO1)(C(=O)NO)S(C)(=O)=O` (single isomer, unassigned) [Compound 13-B, 3-(3-(4-(cyclopropylethynyl)-3-fluorophenyl)-4,5-dihydroisoxazol-5-yl)-N-hydroxy-2-methyl-2-(methylsulfonyl)propanamide], the minimal inhibitory concentration (MIC) in test [1] (setting [3]) was 1 mg/L (≈ 2.45 µM). For the same compound, in test [2], the half-inhibitory concentration (IC50) turned out to be 1 nM.

Turning to `CC#Cc1ccc(C2=NOC(CC(C)(C(=O)NO)S(C)(=O)=O)C2)nc1` (single isomer, unassigned) [Compound 14-B, N-hydroxy-2-methyl-2-(methylsulfonyl)-3-(3-(5-(prop-1-yn-1-yl)pyridin-2-yl)-4,5-dihydroisoxazol-5-yl)propanamide], the minimum inhibitory concentration (MIC) in test [1] (setting [3]) was found to be 8 mg/L (≈ 21.9 µM). Moreover, the half-maximal inhibitory concentration (IC50) in test [2] turned out to be 17 nM.

As to `CC(CC1CC(c2ccc(C#CC3CC3)cn2)=NO1)(C(=O)NO)S(C)(=O)=O` (single isomer, unassigned) [Compound 15-B, 3-(3-(5-(cyclopropylethynyl)pyridin-2-yl)-4,5-dihydroisoxazol-5-yl)-N-hydroxy-2-methyl-2-(methylsulfonyl)propanamide], the minimum inhibitory concentration (MIC) in test [1] (setting [3]) amounted to 8 mg/L (≈ 20.4 µM). Besides, the IC50 in test [2] was 4 nM.

With `CC#Cc1ccc(C2=NOC(CC(C)(C(=O)NO)S(C)(=O)=O)C2)c(F)c1` (single isomer, unassigned) [Compound 16-B, 3-(3-(2-fluoro-4-(prop-1-yn-1-yl)phenyl)-4,5-dihydroisoxazol-5-yl)-N-hydroxy-2-methyl-2-(methylsulfonyl)propanamide], in test [1] (setting [3]), the minimal inhibitory concentration (MIC) amounted to 1 mg/L (≈ 2.61 µM). Further, the IC50 in test [2] was 0.6 nM.

In the case of `CC(CC1CC(c2ccc(C#CC3CC3)cc2F)=NO1)(C(=O)NO)S(C)(=O)=O` (single isomer, unassigned) [Compound 17-B, 3-(3-(4-(cyclopropylethynyl)-2-fluorophenyl)-4,5-dihydroisoxazol-5-yl)-N-hydroxy-2-methyl-2-(methylsulfonyl)propanamide], the minimum inhibitory concentration (MIC) in test [1] (setting [3]) was 0.5 mg/L (≈ 1.22 µM). The half-maximal inhibitory concentration (IC50) in test [2] was less than 0.5 nM.

On to `C[C@@H](O)COc1ccc(-c2ccc(C3=NO[C@@H](C[C@](C)(C(=O)NO)S(C)(=O)=O)C3)cc2)cc1` [Compound 61, (R)—N-hydroxy-3-((R)-3-(4′-((R)-2-hydroxypropoxy)-[1,1′-biphenyl]-4-yl)-4,5-dihydroisoxazol-5-yl)-2-methyl-2-(methylsulfonyl)propanamide], for which the minimal inhibitory concentration (MIC) in test [1] (setting [3]) is 0.25 mg/L (≈ 0.525 µM).

Turning to `C[C@@](C[C@H]1CC(c2ccc(-c3ccc(C(O)CO)cc3)cc2)=NO1)(C(=O)NO)S(C)(=O)=O` (stereo partly drawn) [Compound 72, (2R)-3-((5R)-3-(4′-(1,2-dihydroxyethyl)-[1,1′-biphenyl]-4-yl)-4,5-dihydroisoxazol-5-yl)-N-hydroxy-2-methyl-2-(methylsulfonyl)propanamide], the MIC in test [1] (setting [3]) was 0.35 mg/L (≈ 0.757 µM).

For `C[C@@](C[C@H]1CC(c2ccc(-c3ccc(C4(CO)CC4)cc3)cc2)=NO1)(C(=O)NO)S(C)(=O)=O` [Compound 73, (R)—N-hydroxy-3-((R)-3-(4′-(1-(hydroxymethyl)cyclopropyl)-[1,1′-biphenyl]-4-yl)-4,5-dihydroisoxazol-5-yl)-2-methyl-2-(methylsulfonyl)propanamide], the minimal inhibitory concentration (MIC) in test [1] (setting [3]) came out at 0.25 mg/L (≈ 0.529 µM).

For `COc1cc(-c2ccc(C3=NO[C@@H](C[C@](C)(C(=O)NO)S(C)(=O)=O)C3)cc2)c(F)cn1` [Compound 80, (R)-3-((R)-3-(4-(5-fluoro-2-methoxypyridin-4-yl)phenyl)-4,5-dihydroisoxazol-5-yl)-N-hydroxy-2-methyl-2-(methylsulfonyl) propanamide], in test [1] (setting [3]), the MIC is 1 mg/L (≈ 2.21 µM).

Consider `C[C@@](C[C@H]1CC(c2ccc(C#Cc3ccc([C@@H](O)CO)cc3)cc2)=NO1)(C(=O)NO)S(C)(=O)=O` [Compound 97, (R)-3-((R)-3-(4-((4-((R)-1,2-dihydroxyethyl)phenyl)ethynyl)phenyl)-4,5-dihydroisoxazol-5-yl)-N-hydroxy-2-methyl-2-(methylsulfonyl) propanamide], for which the minimum inhibitory concentration (MIC) in test [1] (setting [3]) came to 0.71 mg/L (≈ 1.46 µM).

Regarding `COc1ccc(-c2ccc(C3=NO[C@@H](C[C@](C)(C(=O)NO)S(C)(=O)=O)C3)cc2F)cn1` [Compound 105, (R)-3-((R)-3-(3-fluoro-4-(6-methoxypyridin-3-yl)phenyl)-4,5-dihydroisoxazol-5-yl)-N-hydroxy-2-methyl-2-(methylsulfonyl)propanamide], the concentration for half-maximal inhibition (IC50) in test [2] was 1 nM.

Take `C[C@@](C[C@H]1CC(c2ccc(-c3ccc(CO)nc3)c(F)c2)=NO1)(C(=O)NO)S(C)(=O)=O` [Compound 109, (R)-3-((R)-3-(3-fluoro-4-(6-(hydroxymethyl)pyridin-3-yl)phenyl)-4,5-dihydroisoxazol-5-yl)-N-hydroxy-2-methyl-2-(methylsulfonyl)propanamide]: the IC50 in test [2] was 5 nM.

Broadly, the MIC is the least concentration at which growth counts as inhibited. What is called IC50 is the midpoint of a concentration-inhibition curve.
